Columns and labels:
Assay type in all cases: cell-based
Alcaligens faecalis = assay: MIC in Tryptic Soy Broth, compounds alone and in mixtures; conditions: Table 2, 28° C., 6 days
Method: (§1) Determinations of minimum inhibitory concentrations (MIC's) of the two compounds (pyrithione salts and/or polymyxin sulfate) in a nutrient broth (alone and in mixtures) were conducted to evaluate interactions. Stock solutions of pyrithione salts and/or polymyxin salts were diluted in Tryptic Soy Broth (Difco), and the dilutions were inoculated with an equal volume of bacterial culture (10^6 /ml) or fungal spore suspension (10^5 /ml) in Tryptic Soy Broth and incubated at 28° C. for 3-7 days.
(§2) The interactions of the antimicrobials were determined according to accepted procedures (M. C. Berenbaum [Tables 1 and 2] and P. F. Dougherty "Microdilution Transfer Plate Technique for Determining In Vitro Synergy of Antimicrobial Agents", ANTIMICROBIAL AGENTS AND CHEMOTHERAPY, Vol. 11, No. 2, p. 225-228 (Feb. 1977, American Society for Microbiology) [Tables 3 and 4]). The concentration of each agent in the combination that inhibits the organisms is expressed as a fraction of the concentration that causes the same effect when the same agent is tested alone (i.e., its fractional inhibitory concentration, FIC). If the sum of the FIC's is 1, the combination is additive in its antimicrobial effect; if the sum is <1, the combination is synergistic; and if the sum is >1, the combination is antagonistic.
(§3) ^a Compounds were serially diluted in Tryptic soy Broth (DIFCO),
(§4) ^b Each dilution contained 10^6 bacteria/ml of 10^5 fungi/ml.
(§5) ^a Stock solutions of ZP in dimethylsulfoxide and PB in sterile water

Proteus mirabilis [1] = assay: as above; conditions: Table 2, 28° C., 6 days
Method: as §1, §2, §3, §4, §5

[2] = tested on: Trichophyton mentagrophytes; assay: as above; conditions: Table 2, 28° C., 7 days
Method: as §1, §2, §3, §4, §5

Citrobacter freundii = assay: as above; conditions: Table 2, 28° C., 6 days
Method: as §1, §2, §3, §4, §5

Cephalosporium sp. = assay: as above; conditions: Table 2, 28° C., 7 days
Method: as §1, §2, §3, §4, §5

Gliocladium virens = assay: as above; conditions: Table 2, 28° C., 7 days
Method: as §1, §2, §3, §4, §5

Candida albicans [3] = assay: as above; conditions: Table 2, 28° C., 7 days
Method: as §1, §2, §3, §4, §5

Fusarium solani = assay: as above; conditions: Table 2, 28° C., 7 days
Method: as §1, §2, §3, §4, §5

Pseudomonas fluorescens [4] = assay: as above; conditions: Table 2, 28° C., 6 days
Method: as §1, §2, §3, §4, §5

Penicillin pinophilium = assay: as above; conditions: Table 2, 28° C., 7 days
Method: as §1, §2, §3, §4, §5

Chaetomium globosium = assay: as above; conditions: Table 2, 28° C., 7 days
Method: as §1, §2, §3, §4, §5

Pseudomonas oleovorans = assay: as above; conditions: Table 2, 28° C., 6 days
Method: as §1, §2, §3, §4, §5

Pseudomonas rubescens = assay: as above; conditions: Table 2, 28° C., 6 days
Method: as §1, §2, §3, §4, §5

Pseudomonas Stutzeri = assay: as above; conditions: Table 2, 28° C., 6 days
Method: as §1, §2, §3, §4, §5

Aureobasidium pullulans = assay: as above; conditions: Table 2, 28° C., 7 days
Method: as §1, §2, §3, §4, §5

Aspergillus niger = assay: as above; conditions: Table 2, 28° C., 7 days
Method: as §1, §2, §3, §4, §5

Pseudomonas aeruginosa [5] = assay: as above; conditions: Table 2, 28° C., 6 days
Method: as §1, §2, §3, §4, §5

Fusarium sp. = assay: as above; conditions: Table 2, 28° C., 7 days
From the text: as §3, §4, §5

Proteus mirabilis [6] = assay: Checkerboard MIC Test in Tryptic Soy Broth; conditions: Table 4, 28° C., 3 days
Method: as §1, §2, §4

[7] = tested on: Trichophyton mentagrophytes; assay: Checkerboard MIC Test in Tryptic Soy Broth; conditions: Table 4, 28° C., 5 days
Method: as §1, §2, §4

Candida albicans [8] = assay: Checkerboard MIC Test in Tryptic Soy Broth; conditions: Table 4, 28° C., 5 days
Method: as §1, §2, §4

Pseudomonas fluorescens [9] = assay: Checkerboard MIC Test in Tryptic Soy Broth; conditions: Table 4, 28° C., 3 days
Method: as §1, §2, §4

Pseudomonas aeruginosa [10] = assay: Checkerboard MIC Test in Tryptic Soy Broth; conditions: Table 4, 28° C., 3 days
Method: as §1, §2, §4

[11] = alone, Tryptic Soy Broth, PB sulfate 7730 units/mg
[12] = concentration of the component in ZP+PB mixture, ZP/PB ratio 1/32-1/8
[13] = concentration of the component in ZP+PB mixture, ZP/PB ratio 1/8-1
[14] = alone, checkerboard, PE methanesulfonate, Na+, 14,310 units/mg

## zinc pyrithione [ZP]
Alcaligens faecalis; [11]
  Minimum Inhibitory Concentration, Compound Used Alone: 10.7 ppm
Alcaligens faecalis; concentration of the component in ZP+PB mixture, ZP/PB ratio 8-32
  Minimum Inhibitory Concentration, Mixture: 6.7 ppm
Proteus mirabilis [1]; [11]
  Minimum Inhibitory Concentration, Compound Used Alone: 4.0 ppm
Proteus mirabilis [1]; concentration of the component in ZP+PB mixture, ZP/PB ratio 1/32
  Minimum Inhibitory Concentration, Mixture: 2.0 ppm
[2]; [11]
  Minimum Inhibitory Concentration, Compound Used Alone: 8.0 ppm
[2]; concentration of the component in ZP+PB mixture, ZP/PB ratio 1/4-1/2
  Minimum Inhibitory Concentration, Mixture: 8.0 ppm
Citrobacter freundii; [11]
  Minimum Inhibitory Concentration, Compound Used Alone: 8.0 ppm
Citrobacter freundii; concentration of the component in ZP+PB mixture, ZP/PB ratio 16-64
  Minimum Inhibitory Concentration, Mixture: 3.3 ppm
Cephalosporium sp.; [11]
  Minimum Inhibitory Concentration, Compound Used Alone: 16.0 ppm
Cephalosporium sp.; concentration of the component in ZP+PB mixture, ZP/PB ratio 1/16-1/8
  Minimum Inhibitory Concentration, Mixture: 4.0 ppm
Gliocladium virens; [11]
  Minimum Inhibitory Concentration, Compound Used Alone: 80.0 ppm
Gliocladium virens; concentration of the component in ZP+PB mixture, ZP/PB ratio 1-2
  Minimum Inhibitory Concentration, Mixture: 24.0 ppm
Candida albicans [3]; [11]
  Minimum Inhibitory Concentration, Compound Used Alone: 8.0 ppm
Candida albicans [3]; [12]
  Minimum Inhibitory Concentration, Mixture: 4.0 ppm
Fusarium solani; [11]
  Minimum Inhibitory Concentration, Compound Used Alone: 64.0 ppm
Fusarium solani; [13]
  Minimum Inhibitory Concentration, Mixture: 13.3 ppm
Pseudomonas fluorescens [4]; [11]
  Minimum Inhibitory Concentration, Compound Used Alone: 106.7 ppm
Pseudomonas fluorescens [4]; concentration of the component in ZP+PB mixture, ZP/PB ratio 8-16
  Minimum Inhibitory Concentration, Mixture: 4.7 ppm
Penicillin pinophilium; [11]
  Minimum Inhibitory Concentration, Compound Used Alone: 16.0 ppm
Penicillin pinophilium; concentration of the component in ZP+PB mixture, ZP/PB ratio 1/8
  Minimum Inhibitory Concentration, Mixture: 4.0 ppm
Chaetomium globosium; [11]
  Minimum Inhibitory Concentration, Compound Used Alone: 67.0 ppm
Chaetomium globosium; [13]
  Minimum Inhibitory Concentration, Mixture: 13.3 ppm
Pseudomonas oleovorans; [11]
  Minimum Inhibitory Concentration, Compound Used Alone: 6.7 ppm
Pseudomonas oleovorans; concentration of the component in ZP+PB mixture, ZP/PB ratio 16-32
  Minimum Inhibitory Concentration, Mixture: 4.0 ppm
Pseudomonas rubescens; [11]
  Minimum Inhibitory Concentration, Compound Used Alone: 3.3 ppm
Pseudomonas rubescens; concentration of the component in ZP+PB mixture, ZP/PB ratio 256
  Minimum Inhibitory Concentration, Mixture: 3.3 ppm
Pseudomonas Stutzeri; [11]
  Minimum Inhibitory Concentration, Compound Used Alone: 4.0 ppm
Pseudomonas Stutzeri; concentration of the component in ZP+PB mixture, ZP/PB ratio 16-128
  Minimum Inhibitory Concentration, Mixture: 4.0 ppm
Aureobasidium pullulans; [11]
  Minimum Inhibitory Concentration, Compound Used Alone: 8.0 ppm
Aureobasidium pullulans; concentration of the component in ZP+PB mixture, ZP/PB ratio 1/32-1/16
  Minimum Inhibitory Concentration, Mixture: 4.0 ppm
Aspergillus niger; [11]
  Minimum Inhibitory Concentration, Compound Used Alone: 32.0 ppm
Aspergillus niger; [12]
  Minimum Inhibitory Concentration, Mixture: 16.0 ppm
Pseudomonas aeruginosa [5]; [11]
  Minimum Inhibitory Concentration, Compound Used Alone: 288.0 ppm
Pseudomonas aeruginosa [5]; concentration of the component in ZP+PB mixture, ZP/PB ratio 128-256
  Minimum Inhibitory Concentration, Mixture: 112.0 ppm
Fusarium sp.; [11]
  Minimum Inhibitory Concentration, Compound Used Alone: 64.0 ppm
Fusarium sp.; [13]
  Minimum Inhibitory Concentration, Mixture: 18.7 ppm
Proteus mirabilis [6]; [14]
  Minimum Inhibitory Concentration, Compound Used Alone: 8 ppm
Proteus mirabilis [6]; concentration of the component in ZP+PE mixtures, ZP/PE range 1/1024
  Minimum Inhibitory Concentration, Mixture Range: 4 ppm
[7]; [14]
  Minimum Inhibitory Concentration, Compound Used Alone: 16 ppm
[7]; concentration of the component in ZP+PE mixtures, ZP/PE range 1/4-4
  Minimum Inhibitory Concentration, Mixture Range: 8-16 ppm
Candida albicans [8]; [14]
  Minimum Inhibitory Concentration, Compound Used Alone: 16 ppm
Candida albicans [8]; concentration of the component in ZP+PE mixtures, ZP/PE range 1/2048-1/4
  Minimum Inhibitory Concentration, Mixture Range: 1-8 ppm
Pseudomonas fluorescens [9]; [14]
  Minimum Inhibitory Concentration, Compound Used Alone: 64 ppm
Pseudomonas fluorescens [9]; concentration of the component in ZP+PE mixtures, ZP/PE range ≤1/128-4
  Minimum Inhibitory Concentration, Mixture Range: ≤1-16 ppm
Pseudomonas aeruginosa [10]; [14]
  Minimum Inhibitory Concentration, Compound Used Alone: 128 ppm
Pseudomonas aeruginosa [10]; concentration of the component in ZP+PE mixtures, ZP/PE range 2-8
  Minimum Inhibitory Concentration, Mixture Range: 16-32 ppm

Reference: patent publication US5696083A, “Personal care composition containing pyrithione and polymyxin” (Olin Corporation, priority 1994, dated 1997)
